Data from ChEMBL document CHEMBL5465560, “Selectivity Literature for EUbOPEN Chemogenomic Library” (2024).
One block for each compound: values may come before it.

How the values were obtained:
[1] = tested on: Angiopoietin-1 receptor (Homo sapiens), Q02763 [Y1108F]; test: (§1) Selectivity interaction (LanthaScreen Eu Kinase Binding Assay) EUB0001632a TEK; conditions: at 10 µM
[2] = tested on: Angiopoietin-1 receptor (Homo sapiens), Q02763 [R849W]; test: as §1; conditions: at 10 µM
[3] = biological target: T1, Mitogen-activated protein kinase kinase kinase 15 (Homo sapiens) (UniProt Q6ZN16); test: Selectivity interaction (KinomeScan (DiscoverX)) EUB0000607a MAP3K15; conditions: at 10 µM
T1 sequence (whole entry): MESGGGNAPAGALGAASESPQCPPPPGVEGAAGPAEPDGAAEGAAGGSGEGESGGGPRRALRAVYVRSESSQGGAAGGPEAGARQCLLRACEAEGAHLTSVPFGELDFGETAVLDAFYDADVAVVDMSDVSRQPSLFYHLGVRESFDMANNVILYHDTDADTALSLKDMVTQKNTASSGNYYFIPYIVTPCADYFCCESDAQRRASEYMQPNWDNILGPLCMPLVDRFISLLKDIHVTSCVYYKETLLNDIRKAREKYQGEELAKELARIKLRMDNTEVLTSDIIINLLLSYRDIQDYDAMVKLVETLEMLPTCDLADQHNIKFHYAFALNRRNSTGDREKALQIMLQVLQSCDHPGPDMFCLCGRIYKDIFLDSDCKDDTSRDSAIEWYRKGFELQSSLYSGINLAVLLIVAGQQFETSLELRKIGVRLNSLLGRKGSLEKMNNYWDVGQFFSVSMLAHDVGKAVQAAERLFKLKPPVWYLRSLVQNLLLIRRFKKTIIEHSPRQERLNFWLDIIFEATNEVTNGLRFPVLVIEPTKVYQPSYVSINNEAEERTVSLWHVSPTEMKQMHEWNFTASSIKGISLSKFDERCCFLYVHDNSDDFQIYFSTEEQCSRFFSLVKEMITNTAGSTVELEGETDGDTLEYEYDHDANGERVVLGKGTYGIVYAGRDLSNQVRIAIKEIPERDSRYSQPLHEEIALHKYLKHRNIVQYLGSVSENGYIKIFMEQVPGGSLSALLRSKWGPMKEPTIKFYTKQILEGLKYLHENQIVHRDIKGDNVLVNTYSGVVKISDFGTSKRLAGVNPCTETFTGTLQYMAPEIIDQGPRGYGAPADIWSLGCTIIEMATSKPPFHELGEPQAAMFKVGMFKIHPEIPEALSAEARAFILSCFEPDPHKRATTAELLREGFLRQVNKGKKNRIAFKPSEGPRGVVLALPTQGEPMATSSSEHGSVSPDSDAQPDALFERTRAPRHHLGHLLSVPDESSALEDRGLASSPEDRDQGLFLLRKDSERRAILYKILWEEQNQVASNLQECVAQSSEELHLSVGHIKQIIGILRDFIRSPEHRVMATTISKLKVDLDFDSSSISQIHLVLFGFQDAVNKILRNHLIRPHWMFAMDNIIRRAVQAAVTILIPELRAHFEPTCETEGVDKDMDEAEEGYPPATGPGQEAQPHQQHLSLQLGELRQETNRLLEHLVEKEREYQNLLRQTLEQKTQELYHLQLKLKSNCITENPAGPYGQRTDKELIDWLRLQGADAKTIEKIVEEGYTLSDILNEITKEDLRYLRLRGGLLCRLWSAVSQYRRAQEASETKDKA

[4] = biological target: Tyrosine-protein kinase JAK1 (Homo sapiens, UniProt P23458); conditions: at 10 µM
Sequence of Tyrosine-protein kinase JAK1 (P23458 whole entry): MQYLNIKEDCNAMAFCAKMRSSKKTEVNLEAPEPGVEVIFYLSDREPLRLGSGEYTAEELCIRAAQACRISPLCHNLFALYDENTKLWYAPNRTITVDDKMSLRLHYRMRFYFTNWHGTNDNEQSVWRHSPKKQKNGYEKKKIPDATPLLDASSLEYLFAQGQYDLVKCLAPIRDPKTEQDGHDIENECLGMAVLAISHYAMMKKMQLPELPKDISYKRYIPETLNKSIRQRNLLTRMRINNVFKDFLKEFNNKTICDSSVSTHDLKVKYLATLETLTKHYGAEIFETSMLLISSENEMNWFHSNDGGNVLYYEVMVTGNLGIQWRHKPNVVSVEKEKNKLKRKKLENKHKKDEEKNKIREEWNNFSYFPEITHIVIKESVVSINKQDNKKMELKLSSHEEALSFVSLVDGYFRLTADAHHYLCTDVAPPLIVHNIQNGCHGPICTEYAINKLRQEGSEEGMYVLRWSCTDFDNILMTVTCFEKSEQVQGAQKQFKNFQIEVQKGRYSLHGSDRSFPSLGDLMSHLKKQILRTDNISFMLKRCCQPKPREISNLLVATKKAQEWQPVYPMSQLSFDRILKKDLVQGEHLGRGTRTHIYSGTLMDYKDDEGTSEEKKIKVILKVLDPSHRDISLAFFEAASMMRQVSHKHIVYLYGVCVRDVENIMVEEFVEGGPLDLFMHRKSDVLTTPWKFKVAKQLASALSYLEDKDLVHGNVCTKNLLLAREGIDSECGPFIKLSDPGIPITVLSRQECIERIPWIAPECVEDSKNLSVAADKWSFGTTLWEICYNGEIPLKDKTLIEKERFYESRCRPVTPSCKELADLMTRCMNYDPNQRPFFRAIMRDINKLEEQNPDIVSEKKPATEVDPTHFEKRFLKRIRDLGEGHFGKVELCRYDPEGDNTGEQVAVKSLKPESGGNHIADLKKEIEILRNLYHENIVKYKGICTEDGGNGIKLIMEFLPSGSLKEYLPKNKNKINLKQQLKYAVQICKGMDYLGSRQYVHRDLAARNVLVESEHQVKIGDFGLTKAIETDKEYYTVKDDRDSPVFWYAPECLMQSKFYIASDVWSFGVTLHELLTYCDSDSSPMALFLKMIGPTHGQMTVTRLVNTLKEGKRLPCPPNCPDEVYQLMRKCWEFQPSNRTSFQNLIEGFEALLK

[5] = biological target: Serine/threonine-protein kinase 10 (Homo sapiens) (UniProt O94804); test: Selectivity interaction (ActivX KiNativ screen (kinase selectivity in THP-1 cell lysates)) EUB0000639a STK10; assay type: subcellular; conditions: lysate, at 0.2 µM
Sequence of Serine/threonine-protein kinase 10 (Homo sapiens) (O94804 whole entry, looked up): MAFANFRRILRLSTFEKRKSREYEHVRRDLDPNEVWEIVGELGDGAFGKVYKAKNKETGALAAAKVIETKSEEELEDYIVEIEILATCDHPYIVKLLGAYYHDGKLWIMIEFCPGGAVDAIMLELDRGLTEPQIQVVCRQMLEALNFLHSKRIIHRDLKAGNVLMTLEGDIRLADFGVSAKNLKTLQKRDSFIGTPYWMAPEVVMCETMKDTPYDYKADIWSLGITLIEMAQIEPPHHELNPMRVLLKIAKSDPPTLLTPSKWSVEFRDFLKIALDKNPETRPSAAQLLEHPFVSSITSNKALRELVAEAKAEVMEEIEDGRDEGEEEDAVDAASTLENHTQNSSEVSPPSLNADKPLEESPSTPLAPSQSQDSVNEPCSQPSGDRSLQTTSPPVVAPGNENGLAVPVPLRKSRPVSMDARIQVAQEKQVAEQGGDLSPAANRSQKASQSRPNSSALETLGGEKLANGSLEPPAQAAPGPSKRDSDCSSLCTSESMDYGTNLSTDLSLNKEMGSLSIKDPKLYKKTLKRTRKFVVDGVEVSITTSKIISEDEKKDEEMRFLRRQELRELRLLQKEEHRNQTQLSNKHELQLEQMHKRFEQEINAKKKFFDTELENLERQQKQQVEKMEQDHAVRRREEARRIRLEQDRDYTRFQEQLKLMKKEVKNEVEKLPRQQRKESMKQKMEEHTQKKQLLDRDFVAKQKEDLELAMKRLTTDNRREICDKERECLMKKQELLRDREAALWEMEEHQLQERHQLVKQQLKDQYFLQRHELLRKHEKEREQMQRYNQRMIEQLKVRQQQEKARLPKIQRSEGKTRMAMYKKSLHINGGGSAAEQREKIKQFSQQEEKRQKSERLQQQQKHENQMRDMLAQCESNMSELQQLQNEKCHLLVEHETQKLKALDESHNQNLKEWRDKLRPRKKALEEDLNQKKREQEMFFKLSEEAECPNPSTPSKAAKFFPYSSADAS

[6] = biological target: T2, Serine/threonine-protein kinase PLK4 (Homo sapiens) (UniProt O00444); test: Selectivity interaction (KinomeScan (DiscoverX)) EUB0000655a PLK4; conditions: at 10 µM
T2 sequence (whole entry): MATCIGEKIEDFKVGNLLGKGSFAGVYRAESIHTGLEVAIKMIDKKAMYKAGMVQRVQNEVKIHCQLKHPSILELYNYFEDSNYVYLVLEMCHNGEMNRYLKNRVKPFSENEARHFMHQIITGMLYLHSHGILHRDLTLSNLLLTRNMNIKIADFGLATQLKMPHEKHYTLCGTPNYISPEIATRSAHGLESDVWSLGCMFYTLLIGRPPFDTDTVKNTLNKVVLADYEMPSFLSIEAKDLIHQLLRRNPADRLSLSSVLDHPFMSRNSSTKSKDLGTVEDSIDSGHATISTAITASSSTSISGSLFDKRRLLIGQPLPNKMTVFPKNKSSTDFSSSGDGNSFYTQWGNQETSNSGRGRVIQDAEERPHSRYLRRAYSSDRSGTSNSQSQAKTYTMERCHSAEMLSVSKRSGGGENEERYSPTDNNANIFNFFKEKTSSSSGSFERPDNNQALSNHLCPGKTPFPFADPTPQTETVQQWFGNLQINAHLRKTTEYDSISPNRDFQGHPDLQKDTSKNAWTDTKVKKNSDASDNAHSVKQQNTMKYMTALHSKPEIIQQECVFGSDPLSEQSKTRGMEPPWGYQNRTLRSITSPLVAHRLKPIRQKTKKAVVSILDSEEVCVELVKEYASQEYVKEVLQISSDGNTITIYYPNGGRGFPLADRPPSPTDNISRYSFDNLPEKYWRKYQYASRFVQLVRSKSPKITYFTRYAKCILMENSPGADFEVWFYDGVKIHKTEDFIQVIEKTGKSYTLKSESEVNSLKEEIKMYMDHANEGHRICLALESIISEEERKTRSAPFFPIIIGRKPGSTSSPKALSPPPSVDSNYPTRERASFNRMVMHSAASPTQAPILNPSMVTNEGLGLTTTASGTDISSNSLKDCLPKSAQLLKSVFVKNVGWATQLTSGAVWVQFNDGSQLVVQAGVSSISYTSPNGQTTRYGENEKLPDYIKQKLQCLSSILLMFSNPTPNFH

[7] = biological target: 5-hydroxytryptamine receptor 7 (Homo sapiens) (UniProt P34969); test: Selectivity interaction (GPCR panel (PDSP screen)) EUB0001079a HTR7; conditions: at 10 µM
Sequence of 5-hydroxytryptamine receptor 7 (Homo sapiens) (P34969 whole entry): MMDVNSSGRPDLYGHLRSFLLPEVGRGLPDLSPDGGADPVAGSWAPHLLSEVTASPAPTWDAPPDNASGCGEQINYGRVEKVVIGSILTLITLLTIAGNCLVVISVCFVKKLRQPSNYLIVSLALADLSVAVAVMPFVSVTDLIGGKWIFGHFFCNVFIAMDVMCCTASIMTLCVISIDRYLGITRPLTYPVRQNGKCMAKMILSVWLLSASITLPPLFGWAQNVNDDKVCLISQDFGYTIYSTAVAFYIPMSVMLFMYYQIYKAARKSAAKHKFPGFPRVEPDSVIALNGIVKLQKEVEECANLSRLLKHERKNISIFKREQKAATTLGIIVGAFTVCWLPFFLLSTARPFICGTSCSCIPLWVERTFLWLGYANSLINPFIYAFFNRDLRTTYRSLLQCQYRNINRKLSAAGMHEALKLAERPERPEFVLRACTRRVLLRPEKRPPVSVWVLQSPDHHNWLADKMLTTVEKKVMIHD

Sequence of Angiopoietin-1 receptor (Homo sapiens), Q02763 [Y1108F] (Q02763 whole entry Y1108F): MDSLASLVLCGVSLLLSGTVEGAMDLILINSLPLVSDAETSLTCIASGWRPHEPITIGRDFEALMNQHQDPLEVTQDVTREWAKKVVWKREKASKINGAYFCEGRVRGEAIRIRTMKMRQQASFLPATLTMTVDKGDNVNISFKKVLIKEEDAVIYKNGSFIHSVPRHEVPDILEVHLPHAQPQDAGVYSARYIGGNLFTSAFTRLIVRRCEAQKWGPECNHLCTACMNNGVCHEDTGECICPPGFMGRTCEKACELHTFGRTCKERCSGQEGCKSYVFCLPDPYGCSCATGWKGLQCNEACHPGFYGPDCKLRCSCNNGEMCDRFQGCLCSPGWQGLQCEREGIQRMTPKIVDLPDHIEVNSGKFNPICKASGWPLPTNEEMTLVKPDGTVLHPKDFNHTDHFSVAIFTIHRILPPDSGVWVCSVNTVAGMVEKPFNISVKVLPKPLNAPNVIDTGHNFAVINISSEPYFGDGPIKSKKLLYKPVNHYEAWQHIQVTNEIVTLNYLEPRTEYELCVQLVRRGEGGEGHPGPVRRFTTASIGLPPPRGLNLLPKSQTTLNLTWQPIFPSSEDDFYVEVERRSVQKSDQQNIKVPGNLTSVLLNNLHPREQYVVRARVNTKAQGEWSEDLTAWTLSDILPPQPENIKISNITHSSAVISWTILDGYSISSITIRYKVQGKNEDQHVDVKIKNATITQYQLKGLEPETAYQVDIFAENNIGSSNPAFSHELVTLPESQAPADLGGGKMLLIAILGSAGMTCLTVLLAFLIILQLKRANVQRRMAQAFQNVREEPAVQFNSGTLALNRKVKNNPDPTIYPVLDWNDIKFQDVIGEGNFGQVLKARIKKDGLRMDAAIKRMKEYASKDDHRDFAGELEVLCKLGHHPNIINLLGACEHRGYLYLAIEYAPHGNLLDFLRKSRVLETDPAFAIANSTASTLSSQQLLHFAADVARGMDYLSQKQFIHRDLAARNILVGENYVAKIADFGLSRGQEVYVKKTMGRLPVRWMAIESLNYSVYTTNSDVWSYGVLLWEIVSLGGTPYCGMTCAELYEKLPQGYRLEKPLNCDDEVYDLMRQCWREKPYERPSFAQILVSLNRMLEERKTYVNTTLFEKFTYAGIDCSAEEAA
Sequence of Angiopoietin-1 receptor (Homo sapiens), Q02763 [R849W] (Q02763 whole entry R849W): as the sequence (Q02763 whole entry Y1108F) above, with R849W, F1108Y counted along it

% of inhibition [1]: -24.4%
% of inhibition [2]: -63.9%
Compound: Cn1cc(-n2cnc3c(NCc4nc5cc(Cl)c(Cl)cc5[nH]4)nc(N4CCOCC4)nc32)cn1

Compound: CNC(=O)Nc1ccc(-c2nc(N3CC4CCC(C3)O4)c3cnn(C4CCC5(CC4)OCCO5)c3n2)cc1
% of control [3]: 100%

% of control [4]: 100%
Compound: CCN(CC)CCCCNc1ncc2cc(-c3cc(OC)cc(OC)c3)c(NC(=O)NC(C)(C)C)nc2n1

% of inhibition [5]: -8.1%
Compound: CC[C@@H]1[C@H](F)C(=O)N[C@@H]1COc1nccc2cc(C(N)=O)c(OC)cc12 [ZIMLOVISERTIB]

Compound: CN(C)CCOc1ccc(-c2nc(-c3ccncc3)c(-c3ccc4c(c3)CC/C4=N\O)[nH]2)cc1
% of control [6]: 83%

Compound: Nc1cnc(N2CCc3cc(S(=O)(=O)Nc4c(F)cc(Cl)cc4F)cc(N4CCCC4=O)c32)nc1 [TP-020n]
% of inhibition [7]: 0.94%
